Data reported in US4069346A, “Compositions and methods for anesthetizing an animal using deuterated analogues of halothane and chloroform” (The Dow Chemical Company, priority 1977, dated 1978).

Tests used:
liver [1] = assay: Relative hepatotoxicity of chloroform: serum glutamic-pyruvic transaminase (SGPT) level as indicator of liver damage after inhalation (Example 3); type: in vivo, male Fischer 344 rats; conditions: 0.36 percent (v/v); for SGPT level: inhaled two hours, blood collected after 24 hours, room air control 24.8 mμ/ml ± 2, groups of 10
Excerpt: (§1) Appl. Pharmacol., 9, 139-151 (1966), which used the serum glutamic-pyruvic transaminase (SGPT) level as an indicator of liver damage.

male Fischer 344 rats [2] = conditions: 0.36 percent (v/v), two hours
Protocol: Halothane and deuterated halothane were vaporized by metering the liquid compounds at a controlled rate into a temperature regulated vaporization flask held at 150° C. The vapor was swept into the air inlet of a 30 liter glass exposure chamber at a rate of 6 liters/minute. The concentration of the anesthetic in the exposure chamber was monitored by gas-liquid chromatography using direct gas sampling loops.
Using the same equipment to expose the animals as that of Example 2, three groups of 10 male Fischer 344 rats were exposed to room air, 0.36 percent (v/v) chloroform and 0.36 percent (v/v) deuterated chloroform for two hours. The animals were maintained two to a cage for 24 hours following the exposure. At the end of this period, the animals were decapitated and blood was collected in plastic centrifuge tubes and allowed to clot. The SGPT levels were determined using a commercially available method. SGPT concentrations of each group of animals were compared with the other groups by nonparametric analysis of variance.

liver [3] = conditions: cited from earlier work; for damage to the liver: literature: Anesth. 45, 622 (1976) and 43, 392 (1975)
liver [4] = assay: SGPT as indication of liver toxicity after anesthesia with halothane and deuterated halothane (Example 4); type: in vivo, Fischer 344 rats; conditions: 1 percent (v/v) in air, two hours; for SGPT levels, comparison with the control: 24 hours; for SGPT: blood collected after 24 hours, control 18.8
Protocol: as §1
Using the same techniques as described in Example 3 above, Fischer 344 rats were anesthetized for two hours with halothane and deuterated halothane using an anesthetic concentration of 1 percent (v/v) in air. After 24 hours, the animals were sacrificed and the blood collected from each. SGPT was run on each blood sample as in indication of liver toxicity.

[5] = Serum inorganic bromide concentration 72 hours after inhalation exposure; type: in vivo, male Fischer 344 rats; conditions: 0.75 volume/volume, inhaled 2 hours, analysis of variance
Protocol: (§2) Three groups of 6 male Fischer 344 rats (6 months of age, 200-300 grams) were exposed to room air and 0.75 volume/volume halothane or the deuterated analogue for a period of 2 hours. Following exposure, all animals were maintained for 72 hours. […] The serum inorganic bromide concentration was determined using a specific ion electrode (Orion).

male Fischer 344 rats [6] = assay: Anesthetic properties on inhalation, halothane vs deuterated analogue (Example 2); type: in vivo; conditions: 0.75 volume/volume, 2 hours
Protocol: as §2

SMILES	SGPT level (liver [1])	SGPT level, difference between chloroform and deuterated chloroform treated groups (liver [1]; two hours, 24 hours, nonparametric analysis of variance)	anesthetic properties, difference between chloroform and deuterated chloroform (male Fischer 344 rats [2])	damage to the liver (liver [3])	inorganic bromide in the blood (liver [3]; literature: Anesthes. 44, 194 (1976))	SGPT levels, comparison with the control (liver [4])	SGPT (liver [4])	serum bromide levels, comparison of halothane with deuterated halothane [5]	anesthetic properties, difference between halothane and the deuterated analogue (male Fischer 344 rats [6])
[2H]C(Cl)(Cl)Cl [deuterated chloroform]	38.3 mμ/ml	significant at p<0.05	no difference in the anesthetic properties	–	–	–	–	–	–
FC(F)(F)C(Cl)Br (stereo not drawn) [halothane, 2-bromo-2-chloro-1,1,1-trifluorethane]	–	–	–	in some instances they cause damage to the liver	elevation of inorganic bromide in the blood	significant increase in SGPT levels	24.0 mμ/ml	significantly higher than those treated with deuterated halothane, p<0.01	No difference in anesthetic properties
ClC(Cl)Cl [chloroform]	56.3 mμ/ml	–	no difference in the anesthetic properties	in some instances they cause damage to the liver	–	–	–	–	–
[2H]C(Cl)(Br)C(F)(F)F (stereo not drawn) [deuterated halothane, 2-bromo-2-chloro-1,1,1-trifluoroethane-d]	–	–	–	–	–	not significantly different from the control	19.6 mμ/ml	–	No difference in anesthetic properties
